Series [1] concerns the target T1, Sodium-dependent phosphate transport protein 2B (Homo sapiens, UniProt O95436).
T1 sequence (O95436 whole entry): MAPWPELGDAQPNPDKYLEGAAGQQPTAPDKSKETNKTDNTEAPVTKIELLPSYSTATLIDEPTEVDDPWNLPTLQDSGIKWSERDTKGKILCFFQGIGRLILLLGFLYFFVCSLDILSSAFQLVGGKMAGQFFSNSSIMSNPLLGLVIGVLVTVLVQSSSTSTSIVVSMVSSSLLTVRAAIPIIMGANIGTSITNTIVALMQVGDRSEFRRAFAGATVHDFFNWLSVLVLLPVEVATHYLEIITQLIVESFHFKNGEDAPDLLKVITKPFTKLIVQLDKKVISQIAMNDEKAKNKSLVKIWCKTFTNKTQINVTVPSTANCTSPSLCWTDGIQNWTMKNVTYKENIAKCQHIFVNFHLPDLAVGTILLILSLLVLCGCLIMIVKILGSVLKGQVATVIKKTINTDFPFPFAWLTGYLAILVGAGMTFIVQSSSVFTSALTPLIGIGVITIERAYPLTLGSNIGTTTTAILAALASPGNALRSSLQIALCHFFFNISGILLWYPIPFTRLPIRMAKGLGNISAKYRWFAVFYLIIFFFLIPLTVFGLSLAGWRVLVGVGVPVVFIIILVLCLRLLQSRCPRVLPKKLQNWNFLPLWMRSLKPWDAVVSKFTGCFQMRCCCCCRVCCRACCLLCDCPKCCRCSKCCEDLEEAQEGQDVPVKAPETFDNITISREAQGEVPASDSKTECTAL
Put plainly: Inhibition of human NaPi2b.

Series [2] in a line: Solubility of the compound in FaSSIF at pH 6.6. Type of series: physicochemical.
The nature of series [3]: Solubility of the compound in FeSSIF at pH 5.1. Type of series: physicochemical.
Series [4] can be described thus: AUC (0 to t) in fasted Sprague-Dawley rat at 10 mg/kg, po. Type of series: ADME, organism-based. More on the design: dose 10 mg/kg, route po. As to conditions: in vivo; for AUC(0-t): Sprague-Dawley.
The nature of series [5]: Cmax in fasted Sprague-Dawley rat at 10 mg/kg, po. Type of series: ADME, organism-based. More on the design: dose 10 mg/kg, route po. To be noted: in vivo.
Series [6] can be described thus: Oral bioavailability in fasted Sprague-Dawley rat at 10 mg/kg. To be noted: in vivo; for bioavailability: Sprague-Dawley. Type of series: ADME, organism-based.
Series [7] in a line: AUC (0 to t) in fasted Sprague-Dawley rat at 1 mg/kg, iv. As to conditions: in vivo; for AUC(0-t): Sprague-Dawley. Set-up: dose 1 mg/kg, route iv. Type of series: ADME, organism-based.
Series [8] is described as follows: Drug excretion in fasted Sprague-Dawley rat feces at 10 mg/kg, po measured after 24 hrs. Type of series: ADME, organism-based. To be noted: faeces, read-out: Drug excretion.
Series [9] can be described thus: Drug concentration in Sprague-Dawley rat intestine at 10 mg/kg, po relative to excretion rate. To be noted: in vivo. Type of series: ADME, organism-based.
The target in series [10] is T2, Sodium-dependent phosphate transport protein 2B (Rattus norvegicus, UniProt Q9JJ09).
T2 sequence (Q9JJ09 whole entry): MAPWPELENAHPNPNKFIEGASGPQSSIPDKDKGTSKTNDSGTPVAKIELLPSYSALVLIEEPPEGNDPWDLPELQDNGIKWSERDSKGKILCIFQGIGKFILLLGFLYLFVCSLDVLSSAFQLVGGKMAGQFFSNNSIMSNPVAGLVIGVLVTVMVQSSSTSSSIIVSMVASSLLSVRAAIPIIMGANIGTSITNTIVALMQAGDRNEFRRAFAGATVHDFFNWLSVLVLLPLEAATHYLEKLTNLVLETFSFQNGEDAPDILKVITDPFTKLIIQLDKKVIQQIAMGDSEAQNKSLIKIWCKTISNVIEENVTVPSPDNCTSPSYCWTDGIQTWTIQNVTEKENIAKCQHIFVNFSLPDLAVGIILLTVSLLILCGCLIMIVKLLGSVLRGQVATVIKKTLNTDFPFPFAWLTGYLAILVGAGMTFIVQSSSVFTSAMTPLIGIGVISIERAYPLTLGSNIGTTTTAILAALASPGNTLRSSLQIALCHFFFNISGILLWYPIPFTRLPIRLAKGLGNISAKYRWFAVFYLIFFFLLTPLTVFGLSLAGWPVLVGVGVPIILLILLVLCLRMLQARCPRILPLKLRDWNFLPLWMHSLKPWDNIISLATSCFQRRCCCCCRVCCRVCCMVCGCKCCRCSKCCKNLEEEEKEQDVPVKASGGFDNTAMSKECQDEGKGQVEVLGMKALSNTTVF
As to the kind of experiment: Inhibition of rat NaPi2b.

The nature of series [11]: Drug concentration in Sprague-Dawley rat intestine at 10 mg/kg, po relative to intestine volume. Type of series: ADME, organism-based. To be noted: in vivo.

One may read the IC50 as the concentration that inhibits the measured activity by half. A low value points to inhibition by little substance. In series [1], `CCC(CC)N(CCN(C)C(=O)CCC(=O)O)Cc1cccc(C(=O)Nc2sc3c(c2C(=O)c2cnn(Cc4ccc(C(=O)O)cc4)c2)CCC(C)(C)C3)c1` yielded a half-inhibitory concentration (IC50) above 1000 nM. On the same count and under the same terms, the figure for `CCC(CC)N(CCN(C)C(=O)CCC(=O)O)Cc1cccc(C(=O)Nc2sc3c(c2C(=O)c2cnn(Cc4cccc(C(=O)O)c4)c2)CCC(C)(C)C3)c1` is above 1000 nM. The same measure, in the same setting: the figure for `CCC(CC)N(CCN(C)C(=O)CCC(=O)O)Cc1cccc(C(=O)Nc2sc3c(c2C(=O)c2cnn(-c4ccc(Cl)cc4)c2)CCC(C)(C)C3)c1` is 36 nM. For orientation: solubility means the concentration that dissolves in the medium under given conditions. Lower therefore signals little dissolved substance. In the case of `CCC(CC)N(CCN(C)C(=O)CCC(=O)NC(C)(C)C(=O)NCCN(C)C)Cc1cccc(C(=O)Nc2sc3c(c2C(=O)c2cnn(-c4ccc(Cl)c(C(F)(F)F)c4)c2)CCC(C)(C)C3)c1.Cl`, the solubility is 242 µg/mL in [2] and above 434 µg/mL in series [3]. In series [1], `CCC(CC)N(CCN(C)C(=O)CCC(=O)O)Cc1cccc(C(=O)Nc2sc3c(c2C(=O)c2cnn(-c4ccc(Cl)cc4)c2)CCCC3)c1` gave an IC50 of 118 nM. This counts as sub-micromolar. For orientation: AUC(0-t) means the area under the concentration-time curve up to a stated or last time point. In general, Cmax refers to the highest concentration seen after dosing. Broadly, the bioavailability is dose-corrected exposure relative to a reference, in per cent. A higher bioavailability goes with good availability. `CCC(CC)N(CCN(C)C(=O)CCC(=O)O)Cc1cccc(C(=O)Nc2sc3c(c2C(=O)c2cnn(-c4ccc(Cl)c(C(F)(F)F)c4)c2)CCC(C)(C)C3)c1`: the results for the exposure AUC(0-t) in [4] and in [7] were 2190 ng·h/mL and 3070 ng·h/mL, respectively. The compound also had a peak concentration (Cmax) in series [5] of 625 ng/mL. The compound also yielded a half-maximal inhibitory concentration (IC50) in series [1] of 38 nM. The same compound yielded a bioavailability in series [6] of 7.1%. `CCC(CC)N(CCN(C)C(=O)CCC(=O)O)Cc1cccc(C(=O)Nc2sc3c(c2C(=O)c2cnn(-c4ccc(Cl)cc4)c2)CCOC3)c1` returned a concentration for half-maximal inhibition (IC50) in series [1] of 437 nM.

Turning to `CCC(CC)N(CCN(C)C(=O)CCC(=O)NC(C)(C)C(=O)NCCN(C)C)Cc1cccc(C(=O)Nc2sc3c(c2C(=O)c2cnn(-c4ccc(Cl)c(C(F)(F)F)c4)c2)CCC(C)(C)C3)c1`, the AUCt was 15.3 ng·h/mL in [4] and 2580 ng·h/mL in [7]. In [5], the highest level (Cmax) was 15.3 ng/mL. The results for the IC50 in [1] and in [10] were 48 nM and 7.6 nM, respectively. The compound further came in with a F in [6] (po, 10 mg/kg) of 0.6%. For the same compound, the dose excreted at 24 h in series [8] amounted to 76.8%. Moreover, the Ct in series [9] worked out at 45 µg/mL; in series [11], 58 µg/mL. As to `CCC(CC)N(CCN(C)C(=O)CCC(=O)O)Cc1cccc(C(=O)Nc2sc3c(c2C(=O)c2cnn(-c4ccc(Cl)cc4)c2)CCN(S(C)(=O)=O)C3)c1`, the 50% inhibitory concentration (IC50) in [1] is 2490 nM. On the same count and under the same terms, with `CCC(CC)N(CCN(C)C(=O)CCC(=O)O)Cc1cccc(C(=O)Nc2sc3c(c2C(=O)c2cnn(Cc4nnc[nH]4)c2)CCC(C)(C)C3)c1` the figure was above 1000 nM.

`CCC(CC)N(CCN(C)C(=O)CCC(=O)O)Cc1cccc(C(=O)Nc2sc3c(c2C(=O)c2cnn(-c4ccc(C(=O)O)cc4)c2)CCC(C)(C)C3)c1`: the concentration for half-maximal inhibition (IC50) in series [1] was above 1000 nM. `CCC(CC)N(CCN(C)C(=O)CCC(=O)O)Cc1cccc(C(=O)Nc2sc3c(c2C(=O)c2cnn(-c4ccc(Cl)cc4)c2)CCN(C(C)=O)C3)c1` yielded an IC50 in series [1] above 1000 nM.

In series [1], `CCC(CC)N(CCN(C)C(=O)CCC(=O)O)Cc1cccc(C(=O)Nc2sc3c(c2C(=O)c2cnn(-c4cccc(C(F)(F)F)c4)c2)CCC(C)(C)C3)c1` showed a half-maximal inhibitory concentration (IC50) of 46 nM. Still for that read-out and setting: the figure for `CCN([C@H]1CC[C@H](C(=O)O)CC1)S(=O)(=O)c1cccc(C(=O)Nc2sc3c(c2C(=O)c2cnn(-c4ccc(Cl)c(C(F)(F)F)c4)c2)CCC(C)(C)C3)c1` is 42 nM; for `CCC(CC)N(CCN(C)C(=O)CCC(=O)O)Cc1cccc(C(=O)Nc2sc3c(c2C(=O)c2cnn(-c4ccc(Cl)cc4)c2)CCN(C2CC2)C3)c1` it is 80 nM. `CC1(C)CCc2c(sc(NC(=O)c3cccc(OCCOCCOCCOCCOCCOCCO)c3)c2C(=O)c2cnn(-c3ccc(Cl)c(C(F)(F)F)c3)c2)C1` registered an IC50 in series [1] of 170 nM. The same measure, in the same setting: the figure for `CCC(CC)N(CCN(C)C(=O)CCC(=O)O)Cc1cccc(C(=O)Nc2sc3c(c2C(=O)c2cnn(-c4cccc(C(=O)O)c4)c2)CCC(C)(C)C3)c1` is above 1000 nM; for `CCC(CC)N(CCN(C)C(=O)CCC(=O)O)Cc1cccc(C(=O)Nc2sc3c(c2C(=O)c2cnn(Cc4ccccc4)c2)CCC(C)(C)C3)c1` it is 179 nM; for `CCC(CC)N(CCN(C)C(=O)CCC(=O)O)S(=O)(=O)c1cccc(C(=O)Nc2sc3c(c2C(=O)c2cnn(-c4ccc(Cl)c(C(F)(F)F)c4)c2)CCC(C)(C)C3)c1` it is 39 nM. In the case of `CCC(CC)N(CCN(C)C(=O)CCC(=O)NCCOCCOCCOCCO)Cc1cccc(C(=O)Nc2sc3c(c2C(=O)c2cnn(-c4ccc(Cl)c(C(F)(F)F)c4)c2)CCC(C)(C)C3)c1`, the AUC(0-t) in series [4] is 32.3 ng·h/mL; in series [7] it was 1570 ng·h/mL. Besides, the Cmax in series [5] is 28.1 ng/mL. For the same compound, the IC50 in [1] turned out to be 15 nM; in series [10], 2.1 nM. The same compound registered a bioavailability in series [6] of 0.2%. Further, the dose excreted at 24 h in series [8] was found to be 61.7%. In addition, the Ct in series [9] came to 36 µg/mL; in series [11], 58 µg/mL. Turning to `CCC(CC)N(CCN(C)C(=O)CCC(=O)NCCOCCOCCOCCO)Cc1cccc(C(=O)Nc2sc3c(c2C(=O)c2cnn(-c4ccc(Cl)c(C(F)(F)F)c4)c2)CCC(C)(C)C3)c1.Cl`, the solubility in series [2] was 107 µg/mL; in series [3], above 384 µg/mL. Turning to `CCC(CC)N(CCN(C)C(=O)CCC(=O)O)Cc1cccc(C(=O)Nc2sc3c(c2C(=O)c2cnn(-c4ccc(Cl)cc4)c2)CCSC3)c1`, in [1], half-maximal inhibition (IC50) was put at 713 nM. The same measure, in the same setting: with `CCC(CC)N(CCN(C)C(=O)CCC(=O)N(C)C[C@H](O)[C@@H](O)[C@@H](O)[C@H](O)CO)Cc1cccc(C(=O)Nc2sc3c(c2C(=O)c2cnn(-c4ccc(Cl)c(C(F)(F)F)c4)c2)CCC(C)(C)C3)c1` the figure was 87 nM.

(Values after ChEMBL document CHEMBL5131457, “Design, synthesis and biological evaluation of novel 1H-pyrazole-4-carbonyl-4,5,6,7-tetrahydrobenzo [b]thiophene derivatives as gut-selective NaPi2b inhibitors” (Bioorg Med Chem Lett, 2022).)
